From US11464770B2, “Anticancer pharmaceutical composition” (NATIONAL CANCER CENTER, priority 2016, dated 2022)
Where two headings read alike, the source gives them in different places.

How the values were obtained:
neuroblastoma cell lines = experiment: Cell based assay, cell viability (CellTiter-Glo), neuroblastoma cell lines; details: Homo sapiens; SH-SY5Y cell line
Summary of the method: (§1)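 ATP content as viability surrogate, luminescent read; 72 h compound, 0–2 μM final; cells plated 24 h prior.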

brain cancer cell lines = experiment: Cell based assay, cell viability (CellTiter-Glo), brain cancer cell lines; details: Homo sapiens
[1] = system: lung cancer cell lines (e.g. NCI-H23, NCI-H1229); experiment: Cell based assay, cell viability (CellTiter-Glo), lung cancer cell lines; details: Homo sapiens
Summary of the method: as §1

[2] = U138-MG, U-138 MG cell line, read-out: IC50, Brain cancer cell line U-138 MG
[3] = T98G cell line, read-out: IC50, Brain cancer cell line T98G
[4] = U-251 MG cell line, read-out: IC50, Brain cancer cell line U-251 MG
[5] = A549 cells, 72 hours treatment, CellTiter-Glo, read-out: IC50, lung cancer cell line A549
[6] = DMS 114 cells, 72 hours treatment, CellTiter-Glo, read-out: IC50, lung cancer cell line DMS 114
[7] = MRC-5 cells, 72 hours treatment, CellTiter-Glo, read-out: IC50
[8] = NCI-H23 cells, 72 hours treatment, CellTiter-Glo, read-out: IC50, lung cancer cell line NCI-H23
[9] = NCI-H460 cells, 72 hours treatment, CellTiter-Glo, read-out: IC50, lung cancer cell line NCI-H460
[10] = NCI-H522 cells, 72 hours treatment, CellTiter-Glo, read-out: IC50, lung cancer cell line NCI-H522
[11] = NCI-H1299 cells, 72 hours treatment, CellTiter-Glo, read-out: IC50, lung cancer cell line NCI-H1299
[12] = NCI-H1437 cells, 72 hours treatment, CellTiter-Glo, read-out: IC50, lung cancer cell line NCI-H1437
[13] = Lung cancer cell line A549, 72 hours, cell viability (CellTiter-Glo), read-out: IC50, A549
[14] = Lung cancer cell line DMS 114, 72 hours, cell viability (CellTiter-Glo), read-out: IC50, DMS 114
[15] = Lung cancer cell line NCI-H23, 72 hours, cell viability (CellTiter-Glo), read-out: IC50, NCI-H23
[16] = Lung cancer cell line NCI-H460, 72 hours, cell viability (CellTiter-Glo), read-out: IC50, NCI-H460
[17] = Lung cancer cell line NCI-H522, 72 hours, cell viability (CellTiter-Glo), read-out: IC50, NCI-H522
[18] = Lung cancer cell line NCI-H1299, 72 hours, cell viability (CellTiter-Glo), read-out: IC50, NCI-H1299
[19] = Lung cancer cell line NCI-H1437, 72 hours, cell viability (CellTiter-Glo), read-out: IC50, NCI-H1437
[20] = MRC-5 (listed under Lung cancer cell line), 72 hours, cell viability (CellTiter-Glo), read-out: IC50, MRC-5

IC50 (neuroblastoma cell lines) [nM] | IC50 (brain cancer cell lines; [2]) [nM] | IC50 (brain cancer cell lines; [3]) [nM] | IC50 (brain cancer cell lines; [4]) [nM] | IC50 [1, 5] [nM] | IC50 [1, 6] [nM] | IC50 [1, 8] [nM] | IC50 [1, 9] [nM] | IC50 [1, 10] [nM] | IC50 [1, 11] [nM] | IC50 [1, 12] [nM] | IC50 [1, 13] [nM] | IC50 [1, 14] [nM] | IC50 [1, 15] [nM] | IC50 [1, 16] [nM] | IC50 [1, 17] [nM] | IC50 [1, 18] [nM] | IC50 [1, 19] [nM] | Compound | IC50 [1, 7] [nM] | IC50 [1, 20] [nM]
830 | > 2000 | > 10000 | 1250 | > 2000 | > 2000 | 1640 | 1680 | > 2000 | 1810 | > 10000 |  |  |  |  |  |  |  | CC(=O)c1c([S+]([O-])Cc2ccc(C#N)s2)[nH]c2c(Br)ccc(Cl)c2c1=O (stereo not drawn) [Compound 98, 5-(((3-acetyl-8-bromo-5-chloro-4-oxo-1,4-dihydroquinolin-2-yl)sulfinyl)methyl)thiophene-2-carbonitrile] | > 2000 | 
> 2000 | > 10000 | > 10000 | > 2000 |  |  |  |  |  |  |  | > 2000 | > 2000 | > 2000 | > 2000 | > 2000 | > 2000 | > 10000 | CC(=O)c1c([S+]([O-])Cc2ccc(N)nc2)[nH]c2c(Br)ccc(Cl)c2c1=O (stereo not drawn) [Compound 100, 3-acetyl-2-(((6-aminopyridin-3-yl)methyl)sulfinyl)-8-bromo-5-chloroquinolin-4(1H)-one] |  | > 2000
520 | 1240 | > 10000 | > 2000 |  |  |  |  |  |  |  | 1640 | > 2000 | 1260 | 1440 | 1490 | 1110 | > 10000 | CC(=O)c1c([S+]([O-])Cc2ccc(C(F)(F)F)nc2C)[nH]c2c(Br)ccc(Cl)c2c1=O (stereo not drawn) [Compound 102, 3-acetyl-8-bromo-5-chloro-2-(((2-methyl-6-(trifluoromethyl)pyridin-3-yl)methyl)sulfinyl)quinolin-4(1H)-one] |  | 1430
1010 | > 2000 | > 10000 | > 2000 |  |  |  |  |  |  |  | > 2000 | > 2000 | > 2000 | > 2000 | > 2000 | > 2000 | > 10000 | CC(=O)c1c([S+]([O-])Cc2ccc(NS(C)(=O)=O)cc2)[nH]c2c(Br)ccc(Cl)c2c1=O (stereo not drawn) [Compound 103, N-(4-(((3-acetyl-8-bromo-5-chloro-4-oxo-1,4-dihydroquinolin-2-yl)sulfinyl)methyl)phenyl)methane-sulfonamide] |  | > 2000

Second part, the molecule before the results:

Compound | IC50 (neuroblastoma cell lines) [nM] | IC50 (brain cancer cell lines; [2]) [nM] | IC50 (brain cancer cell lines; [3]) [nM] | IC50 (brain cancer cell lines; [4]) [nM] | IC50 [1, 5] [nM] | IC50 [1, 6] [nM] | IC50 [1, 8] [nM] | IC50 [1, 9] [nM] | IC50 [1, 10] [nM] | IC50 [1, 11] [nM] | IC50 [1, 12] [nM] | IC50 [1, 13] [nM] | IC50 [1, 14] [nM] | IC50 [1, 15] [nM] | IC50 [1, 16] [nM] | IC50 [1, 17] [nM] | IC50 [1, 18] [nM] | IC50 [1, 19] [nM] | IC50 [1, 7] [nM] | IC50 [1, 20] [nM]
COc1cccc2[nH]c([S+]([O-])Cc3cc(C)on3)c(C(C)=O)c(=O)c12 (stereo not drawn) [Compound 94, 3-acetyl-5-methoxy-2-(((5-methylisoxazol-3-yl)methyl)sulfinyl)quinolin-4(1H)-one] | 1760 | > 2000 | > 10000 | > 2000 | > 2000 | > 2000 | 2070 | > 2000 | > 2000 | > 2000 | > 10000 |  |  |  |  |  |  |  | > 2000 | 
Cc1cc(C[S+]([O-])c2[nH]c3c(Br)ccc(Cl)c3c(=O)c2C(=O)C2CC2)no1 (stereo not drawn) [Compound 96, 8-bromo-5-chloro-3-(cyclopropanecarbonyl)-2-(((5-methylisoxazol-3-yl)methyl)sulfinyl)quinolin-4(1H)-one] | 770 | > 2000 | > 10000 | 1310 | > 2000 | > 2000 | 1340 | > 2000 | 1820 | 1800 | > 10000 |  |  |  |  |  |  |  | 1810 | 
Cc1cc(C[S+]([O-])c2[nH]c3c(Cl)ccc(Cl)c3c(=O)c2C(=O)C2CC2)no1 (stereo not drawn) [Compound 97, 5,8-dichloro-3-(cyclopropanecarbonyl)-2-(((5-methylisoxazol-3-yl)methyl)sulfinyl)quinolin-4(1H)-one] | 600 | 1690 | > 10000 | 1120 | > 2000 | > 2000 | 1090 | 1460 | 1320 | 1480 | > 10000 |  |  |  |  |  |  |  | 1430 | 
CC(=O)c1c([S+]([O-])Cc2ccc(-n3cccn3)nc2)[nH]c2c(Br)ccc(Cl)c2c1=O (stereo not drawn) [Compound 99, 2-(((6-(1H-pyrazol-1-yl)pyridin-3-yl)methyl)sulfinyl)-3-acetyl-8-bromo-5-chloroquinolin-4(1H)-one] | 450 | 1160 | > 10000 | 790 |  |  |  |  |  |  |  | 1290 | > 2000 | 920 | 1180 | 1130 | 1060 | > 10000 |  | 1130
O=C(c1c([S+]([O-])Cc2ccc(SC(F)(F)F)cc2)[nH]c2c(Br)ccc(Cl)c2c1=O)C1CC1 (stereo not drawn) [Compound 101, 8-bromo-5-chloro-3-(cyclopropanecarbonyl)-2-((4-((trifluoromethyl)thio)benzyl)sulfinyl)quinolin-4(1H)-one] | 1400 | > 2000 | > 10000 | > 2000 |  |  |  |  |  |  |  | > 2000 | > 2000 | 1330 | > 2000 | > 2000 | > 2000 | > 10000 |  | > 2000
